The values below come from PubChem BioAssay (NCI).

Values joined by “and” are separate entries in the source; they are usually repeats but may differ in a detail not shown here. Equal entries are not always repeated.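 Grown in 96-well plates, cells were treated for 48 hours with each compound at five concentrations. Insufficient inhibition: endpoint recorded as highest concentration tested. The concentration for 50% growth inhibition is given as GI50. TGI is the concentration that stops growth completely.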 Some results are limits rather than exact numbers.

Among the test systems are NCI-H460 lung; OVCAR-3 ovarian; OVCAR-8 ovarian; SF-539 CNS; SR leukemia; SNB-75 CNS; DLD-1 colon; K-562 leukemia; A498 renal; ACHN renal; M19-MEL melanoma; NCI-H226 lung; MDA-MB-231 breast; PC-3 prostate.
Assay in all cases: inhibition of tumour cell growth, NCI panel, 48 h

As for `COc1cc(C2c3cc4c(cc3[C@@H](NCCCN(C)C)[C@H]3COC(=O)C23)OCO4)cc(OC)c1O` (some centres not stated), the TGI in the test on NCI-H460 lung is 0.632 µM and 0.336 µM; in the test on OVCAR-3 ovarian, 1.79 µM and 3.76 µM; in the test with OVCAR-8 ovarian, 1.2 µM and 5.09 µM; in the test on SF-539 CNS, 1.05 µM and 0.981 µM; in the test with SNB-75 CNS, 4.21 µM and 6.84 µM; in the test with DLD-1 colon, 4.01 µM and > 20 µM. Also, the TGI is > 37.5 µM and 7.84 µM in the test on K-562 leukemia; 0.327 µM and 0.696 µM in the test on A498 renal; 0.369 µM and 0.496 µM in the test on ACHN renal; 2.17 µM and 3.35 µM in the test with M19-MEL melanoma. Moreover, the GI50 in the test with OVCAR-8 ovarian is 0.333 µM and 1.26 µM; in the test on SR leukemia, 0.354 µM and 0.0544 µM; in the test on SNB-75 CNS, 0.393 µM and 0.838 µM; with DLD-1 colon it was 1.03 µM and 3.78 µM; in the test on K-562 leukemia it was 0.831 µM and 0.413 µM; in the test with A498 renal, 0.0838 µM and 0.19 µM.

Turning to `Nc1nc(Cl)cc(NCCCCCCCCCCCCNc2cc(Cl)nc(N)n2)n1`, the TGI in the test on NCI-H460 lung is more than 100 µM; in the test on OVCAR-3 ovarian, more than 100 µM; with OVCAR-8 ovarian, 44 µM; with NCI-H226 lung it was 66.9 µM; in the test with SF-539 CNS, 72.5 µM; in the test on SR leukemia it was more than 100 µM. For the same molecule, the TGI with SNB-75 CNS is 34 µM; in the test on DLD-1 colon, more than 100 µM; in the test on K-562 leukemia, more than 100 µM; in the test with A498 renal it was more than 100 µM; with M19-MEL melanoma, more than 100 µM.

`ClCc1ccc2ccc3ccc(CCl)nc3c2n1`: the TGI in the test on NCI-H460 lung stood at 19.6 µM; in the test with OVCAR-3 ovarian, 4.81 µM; in the test on NCI-H226 lung, 9.91 µM; in the test on SF-539 CNS, 5.85 µM; in the test with SNB-75 CNS, 5.83 µM; in the test with DLD-1 colon, 2.89 µM. The TGI with K-562 leukemia was more than 100 µM; in the test with A498 renal, 22.4 µM; in the test on M19-MEL melanoma it was 3.97 µM.

With `CC[C@](C)(O)C(=O)O[C@H]1C(=O)O[C@@H]2C[C@H]3C(C)=C[C@H](O)[C@@H](O)[C@]3(C)[C@H]3[C@@]4(O)OC[C@]32[C@@H]1[C@@H](C)[C@H]4O`, the TGI in the test with NCI-H460 lung came out at 31.3 µM; in the test with OVCAR-3 ovarian, 84.5 µM; in the test on OVCAR-8 ovarian, 136 µM; in the test on NCI-H226 lung it was 81.2 µM; in the test with SF-539 CNS, 47.2 µM; in the test on SNB-75 CNS, 86.5 µM. Also, the TGI is 63.6 µM with DLD-1 colon, 48.8 µM in the test with K-562 leukemia, 71.5 µM in the test on A498 renal and 45.5 µM in the test with M19-MEL melanoma.

Regarding `CCCCCCCSCC1C(=O)C23C(O)C1CCC2C12COC3(O)C(O)C1C(C)(C)CCC2O` (configuration not stated), the TGI with NCI-H460 lung worked out at 29.8 µM; with OVCAR-3 ovarian, 30.3 µM; in the test on OVCAR-8 ovarian, 31.1 µM; with NCI-H226 lung, 33 µM; in the test with SF-539 CNS it was 29.3 µM; with SR leukemia, 23.6 µM. For the same molecule, the TGI in the test on SNB-75 CNS was 49.2 µM; with DLD-1 colon, 30 µM; with K-562 leukemia, 15.8 µM; in the test with A498 renal, 26.9 µM; with ACHN renal, 24.9 µM; with M19-MEL melanoma it was 31.6 µM.

On to `CC(=O)c1cccc(NC(=O)C(=O)C(C(=O)c2ccccc2F)C2OC(=O)c3ccccc32)c1` (configuration not stated), for which the TGI in the test on NCI-H460 lung was more than 100 µM; with OVCAR-8 ovarian, more than 100 µM; in the test on NCI-H226 lung, 67.3 µM; in the test with SR leukemia, 54.9 µM; in the test on SNB-75 CNS, 76.3 µM; in the test on DLD-1 colon, more than 100 µM. The TGI in the test on K-562 leukemia, with A498 renal, with ACHN renal and in the test with M19-MEL melanoma was more than 100 µM each time.

In the case of `COC(=O)C1(C)CCCC2(C)C3CCC4CC3(C=C4CO)CCC12` (configuration not stated), the TGI in the test with MDA-MB-231 breast was more than 100 µM; in the test on OVCAR-3 ovarian, more than 100 µM; in the test with OVCAR-8 ovarian, more than 100 µM; with NCI-H226 lung it was more than 100 µM; with SF-539 CNS it was more than 100 µM; in the test on SR leukemia it was 62 µM. The TGI with SNB-75 CNS, with A498 renal, in the test with ACHN renal and in the test on PC-3 prostate was more than 100 µM in each case.

In the case of `CC(C)CCCC(C)[C@H]1CC[C@H]2[C@@H]3CC[C@H]4C[C@@H](CCC=C(c5cc(Cl)c(O)c(C(=O)O)c5)c5cc(Cl)c(O)c(C(=O)O)c5)CC[C@]4(C)[C@H]3CC[C@]12C` (some centres not stated) (tested in a mixture with another compound), the TGI in the test on MDA-MB-231 breast, in the test on NCI-H460 lung, with OVCAR-3 ovarian, in the test on OVCAR-8 ovarian, in the test with NCI-H226 lung and in the test on SF-539 CNS was more than 50 µM each time. For the same molecule, the TGI in the test with SNB-75 CNS, in the test with K-562 leukemia, in the test on A498 renal, in the test on ACHN renal and in the test with PC-3 prostate was more than 50 µM in each case.

For the molecule `COC(=O)CCC(C)C1CCC2C3CCC4CC5CCC4(C)C3(O5)C(Br)C(Br)C12C` (configuration not stated), the TGI with MDA-MB-231 breast, in the test on NCI-H460 lung, with OVCAR-3 ovarian, in the test with OVCAR-8 ovarian, in the test on NCI-H226 lung and in the test with SF-539 CNS was more than 100 µM throughout. Also, the TGI in the test on SR leukemia, in the test with SNB-75 CNS, with K-562 leukemia, with A498 renal, with ACHN renal and in the test on PC-3 prostate was more than 100 µM in each case.

As to `CC1CC(C)(O)CC(C(O)CC2CC(=O)NC(=O)C2)C1=O` (configuration not stated), the TGI amounted to 0.0651 µM in the test on MDA-MB-231 breast; 1.76 µM in the test on NCI-H460 lung; 3.43 µM in the test on OVCAR-3 ovarian; 2.89 µM with OVCAR-8 ovarian; 0.764 µM with NCI-H226 lung; 0.226 µM in the test with SF-539 CNS. In addition, the TGI in the test on SNB-75 CNS is 1.27 µM; in the test on K-562 leukemia, 0.706 µM; with A498 renal, 3.51 µM; in the test with ACHN renal, 1.17 µM; with PC-3 prostate, 5.63 µM.

With `CCOC(=O)C1=NN(c2ccccc2)C2=CC(C)=NN(C)C(=S)N21`, the TGI in the test with MDA-MB-231 breast, in the test with NCI-H460 lung, with OVCAR-3 ovarian, in the test on OVCAR-8 ovarian, with SF-539 CNS and with SR leukemia was more than 100 µM throughout. The TGI in the test on SNB-75 CNS, in the test with K-562 leukemia, with ACHN renal and in the test with PC-3 prostate was more than 100 µM throughout.

Consider `CN(C)CCCNc1ccc2nnn3c4ccc(OC(=O)c5ccc([N+](=O)[O-])cc5)cc4c(=O)c1c23`, for which the TGI in the test with MDA-MB-231 breast was found to be 23.3 µM; with NCI-H460 lung, 17.9 µM; in the test on OVCAR-3 ovarian, 24.1 µM; in the test on OVCAR-8 ovarian it was 20.8 µM; in the test on SF-539 CNS, 19.3 µM; in the test with SR leukemia, 11.5 µM. The TGI was 18.9 µM in the test with K-562 leukemia, 49.1 µM with A498 renal, 14.1 µM in the test on ACHN renal and 17.5 µM in the test on PC-3 prostate.
